Data: ChEMBL document CHEMBL1142344, “Rapid assembly of diverse and potent allosteric Akt inhibitors” (Bioorg Med Chem Lett, 2008)
pIC50: −log10 of the molar value.

Legend:
[1] = target: T1, RAC-beta serine/threonine-protein kinase (Homo sapiens, UniProt P31751); experiment: Inhibition of human recombinant Akt2
[2] = target: T2, RAC-alpha serine/threonine-protein kinase (Homo sapiens, UniProt P31749); experiment: Inhibition of human recombinant Akt1
[3] = target: T1, RAC-beta serine/threonine-protein kinase; experiment: Inhibition of Akt2 phosphorylation in human C33a cells; assay type: cell-based
[4] = target: T2, RAC-alpha serine/threonine-protein kinase; experiment: Inhibition of Akt1 phosphorylation in human C33a cells; assay type: cell-based
[5] = Half life in dog at 0.25 mg/kg, iv; assay type: ADME, organism-based, Canis lupus familiaris; design: dose 0.25 mg/kg, route intravenous; conditions: in vivo
[6] = Clearance in dog at 0.25 mg/kg, iv; assay type: ADME, organism-based, Canis lupus familiaris; design: dose 0.25 mg/kg, route intravenous; conditions: in vivo

T2 sequence (P31749 whole entry): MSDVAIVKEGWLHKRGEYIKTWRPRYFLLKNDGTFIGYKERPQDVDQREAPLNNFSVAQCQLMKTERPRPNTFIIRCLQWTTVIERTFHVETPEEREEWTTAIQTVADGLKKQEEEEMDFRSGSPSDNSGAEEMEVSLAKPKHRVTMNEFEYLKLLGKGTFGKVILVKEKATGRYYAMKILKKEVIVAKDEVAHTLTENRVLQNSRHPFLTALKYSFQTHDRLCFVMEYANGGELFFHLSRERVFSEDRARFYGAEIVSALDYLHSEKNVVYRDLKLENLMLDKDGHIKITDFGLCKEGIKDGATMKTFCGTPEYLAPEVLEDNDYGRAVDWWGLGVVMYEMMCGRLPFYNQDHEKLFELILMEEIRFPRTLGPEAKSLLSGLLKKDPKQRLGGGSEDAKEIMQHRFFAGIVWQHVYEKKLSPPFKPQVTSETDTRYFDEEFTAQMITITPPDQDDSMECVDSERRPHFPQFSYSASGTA
T1 sequence (P31751 whole entry): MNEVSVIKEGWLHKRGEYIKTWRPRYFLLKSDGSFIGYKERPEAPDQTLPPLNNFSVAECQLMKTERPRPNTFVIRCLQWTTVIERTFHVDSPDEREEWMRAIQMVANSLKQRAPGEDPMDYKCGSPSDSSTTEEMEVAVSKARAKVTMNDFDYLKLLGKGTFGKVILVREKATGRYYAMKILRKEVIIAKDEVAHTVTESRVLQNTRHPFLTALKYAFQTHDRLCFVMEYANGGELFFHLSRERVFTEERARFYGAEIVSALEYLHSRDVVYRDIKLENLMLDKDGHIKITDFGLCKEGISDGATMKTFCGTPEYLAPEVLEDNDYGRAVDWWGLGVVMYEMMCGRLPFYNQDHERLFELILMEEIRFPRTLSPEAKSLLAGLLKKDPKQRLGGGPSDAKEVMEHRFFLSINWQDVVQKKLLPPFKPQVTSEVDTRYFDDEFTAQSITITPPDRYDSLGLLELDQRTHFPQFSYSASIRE

| Structure (SMILES) | pIC50 [1] | pIC50 [2] | pIC50 [3] | pIC50 [4] | half-life [5] [min] | clearance [6] [mL/min/kg] |
| --- | --- | --- | --- | --- | --- | --- |
| Nc1ncnc2nc(-c3ccc(CN4CCC(n5c(=O)[nH]c6ccccc65)CC4)cc3)c(-c3ccccc3)cc12 | 6.59 | 7.09 | 5.29 | 5.74 |  |  |
| Nc1ncnc2nc(-c3ccc(CN4CCC(c5cc(-c6ccncc6)[nH]n5)CC4)cc3)c(-c3ccccc3)cc12 | 7.07 | 7.68 | 5.92 | 6.33 |  |  |
| N#Cc1cc(-c2ccccc2)c(-c2ccc(CN3CCC(n4c(=O)[nH]c5ccccc54)CC3)cc2)nc1N | 5.69 | 6.31 |  |  |  |  |
| CN(C)c1nc(-c2ccc(CN3CCC(n4c(=O)[nH]c5ccccc54)CC3)cc2)c(-c2ccccc2)cc1C#N | 4.81 | 5.07 |  |  |  |  |
| COc1nc(-c2ccc(CN3CCC(n4c(=O)[nH]c5ccccc54)CC3)cc2)c(-c2ccccc2)cc1C#N | 4.42 | 5.26 |  |  |  |  |
| Nc1ncnc2nc(-c3ccc(CN4CCC(c5nc6ccc(F)cc6[nH]5)CC4)cc3)c(-c3ccccc3)cc12 |  |  |  |  | 168 | 5.6 |
| Nc1nc(N)c2cc(-c3ccccc3)c(-c3ccc(CN4CCC(n5c(=O)[nH]c6ccccc65)CC4)cc3)nc2n1 | 6.56 | 6.97 |  |  |  |  |
| Cc1nc2ccccc2n1C1CCN(Cc2ccc(-c3nc4ncnc(N)c4cc3-c3ccccc3)cc2)CC1 | 6.55 | 7.16 | 6.46 | 6.66 |  |  |
| N#Cc1cc(-c2ccccc2)c(-c2ccc(CN3CCC(n4c(=O)[nH]c5ccccc54)CC3)cc2)nc1Cl | 5.13 | 6.60 |  |  |  |  |
| Cn1nc(N)c2cc(-c3ccccc3)c(-c3ccc(CN4CCC(n5c(=O)[nH]c6ccccc65)CC4)cc3)nc21 | 6.25 | 6.92 |  |  |  |  |
| Nc1nc(O)nc2nc(-c3ccc(CN4CCC(n5c(=O)[nH]c6ccccc65)CC4)cc3)c(-c3ccccc3)cc12 | 6.24 | 6.61 |  |  |  |  |
| Nc1ncnc2nc(-c3ccc(CN4CCC(n5cnc6c(N)ncnc65)CC4)cc3)c(-c3ccccc3)cc12 | 6.16 | 6.89 |  |  |  |  |
| CNc1nc(-c2ccc(CN3CCC(n4c(=O)[nH]c5ccccc54)CC3)cc2)c(-c2ccccc2)cc1C#N | 5.09 | 5.65 |  |  |  |  |
| Nc1n[nH]c2nc(-c3ccc(CN4CCC(n5c(=O)[nH]c6ccccc65)CC4)cc3)c(-c3ccccc3)cc12 | 5.13 | 7.07 |  |  |  |  |
| Nc1nn(CCO)c2nc(-c3ccc(CN4CCC(n5c(=O)[nH]c6ccccc65)CC4)cc3)c(-c3ccccc3)cc12 | 5.91 | 6.88 |  |  |  |  |
| Nc1nn(CCc2c[nH]cn2)c2nc(-c3ccc(CN4CCC(n5c(=O)[nH]c6ccccc65)CC4)cc3)c(-c3ccccc3)cc12 | 6.08 | 7.68 |  |  |  |  |
